# Entries after “also recorded” stand apart in the source; their conditions may differ. Where two headings read alike, the source gives them in different places.
# Experiments:
# aldehyde oxidase [1] = conditions: cited from earlier work
# IPdR oxidase = experiment: Effect of inhibitors on the oxidation of IPdR to IUdR by liver homogenate; format: biochemical, rat; conditions: for IC50: liver homogenate, read-out: IC50 (concentration at 50% inhibition of the conversion of IPdR to IUdR); for product inhibition: at 50 mM
# Method: (§1) Rat hepatic tissue was washed with ice-cold 1.15% KCl and blotted dry. The tissue was then homogenized with a tissue homogenizer, in a volume of 1.15% KCl that was 3 times the tissue weight, to form a 25% (w/v) homogenate. The homogenate was then centrifuged at 10,000 g for 10 minutes at 4° C. The resulting supernatant was filtered through Miracloth (similar to cheese cloth) then dialyzed overnight against 50 mM Tris-HCl buffer pH 7.5 and stored at -80° C. before use. Rat hepatocytes were obtained by a perfusion technique then the cells were extracted with 10 mM phosphate buffer, pH 7.5, containing 1M KCl and dialyzed for 4 hours against 50 mM Tris-HCl buffer pH 7.5.
# (§2) For the standard assay condition, the reaction mixture contained 50 mM Tris-HCl, pH 7.5, 1 mM EDTA, 180 μM of IPdR (or its analogs) and approximately 0.01 mg protein of 10,000 g supernatant of tissue homogenate in a final volume of 500 μl and the incubation was at 37° C. for 10 minutes unless specified otherwise. 300 μl of reaction mixture was removed at the end of incubation and mixed with 630 μl acetonitrile then agitated. The precipitated protein were removed by centrifugation and the supernatant was lyophilized to dryness. The samples were reconstituted to the original aliquot volume with the HPLC mobile phase buffer and analyzed on a Alltech RP-18 column. IPdR, IUdR and IU were detected at a UV absorption wavelength of 230 nm, and IPdR was also detected at a UV absorption wavelength of 335 nm. The mobile phase was 10% acetonitrile/90%mM ammonium acetate, pH 6.8 and the flow rate was 1 ml/minute. Standard curves of IPdR and IUdR were established from the integration value of known concentrations.
# aldehyde oxidase [2] = experiment: Substrate specificity of the conversion of RPdR to RUdR; format: in vitro ADME, rat; conditions: for Conversion of RPdR to RUdR / Products of the reaction: substrate 180 μM; for Conversion of RPdR to RUdR: 2 to 4 separate experiments, in nmol/mg/min
# Method: as §1, §2
# (§3) Several 2-pyrimidinone deoxyribose analogs were examined for the conversion to their deoxyuridine counterparts. […] Nevertheless the relative Vmax for IPdR in the reaction at pH 7.5 and pH 9.5 is the same. […] The synthetic substrates for aldehyde oxidase appear to be better than its natural substrates, N^1 -methylnicotinamide and acetaldehyde, as judged by the potency of inhibition of N^1 -methylnicotinamide and acetaldehyde to the IPdR oxidation reaction (Table IV). The rate of reactivity of the liver enzyme with different IPdR analogs follows the order EPdR, IP, IPdR, 5-bromo-2-pyrimidinone deoxyribose (BPdR) and 5-methyl-2-pyrimidinone deoxyribose (MPdR) or 5-ethyl-2-pyrimidinone deoxyribose (EtPdR) (Table V). Electronegative substituents in the 5-position seemed to increase the substrate activity in this oxidation reaction.
# Substrate specificity of the conversion of […]
# [3] = cited from earlier work; for catabolism to the free base: followed by dehalogenation; for cytotoxicity limiting effective use as radiosensitizer: in vivo
# [4] = Michaelis constant / Vmax of 2-pyrimidinone deoxyribose analogs with the liver enzyme; format: biochemical, rat; conditions: rat, liver aldehyde oxidase
# Method: as §1, §2, §3
# hepatic aldehyde oxidase [5] = experiment: Conversion of prodrugs to active compound in vivo
# Excerpt: (§4) As most nucleosides and nucleoside bases include keto groups in their formula and many are structurally related to the structure of uracil, it is expected that bio-affecting compounds which are analogs of nucleosides and nucleoside bases are prime candidates for bio-affecting compounds for which prodrugs in accordance with the present invention can be designed, metabolizable by hepatic aldehyde oxidase into such compounds. Thus, in addition to uracil and uridine analogs, analogs of other nucleosides and nucleoside bases, such as cytidine, guanosine, 6-azauridine and 8-azaguanine analogs, may be used as the basis of the formation of prodrugs in accordance with the present invention. Examples of bio-affecting compounds in this category include ddG, DHPG, ACV, ddI, D4T and AZT.
# hepatic aldehyde oxidase [6] = experiment: Metabolism of prodrugs by hepatic aldehyde oxidase in vitro / in vivo; format: in vitro ADME
# Excerpt: as §4
# [7] = system: leukemia and colon cancer; experiment: Therapeutic effectiveness of FP versus FU in leukemia and colon cancer; format: in vivo, mouse; conditions: oral FP
# Excerpt: There are other occasions besides the treatment of liver-associated diseases when the administration of a prodrug will be preferred to the administration of the bio-affecting compound which is formed from such prodrugs. For example, many drugs are not orally administrable for any of a variety of reasons. Oral administration of a prodrug from which the active compound is released in the liver will avoid most of the disadvantages of oral administration of the active compound. Thus, for example, FU is a well-known anti-cancer drug which cannot be administered orally. FP is a prodrug which is metabolizabie by hepatic aldehyde oxidase to FU. FP may be given orally to a subject.
# (§5) Mice were injected with 100,000 P388-R leukemia cells to induce a leukemia. These cells were resistant to Adriamycin. Daily treatments of 25 and 50 mg/kg FU and 50 and 100 mg/kg FP were given orally to these leukemic mice and the duration of survival was measured. The results are given in tabular and graphic form in Table VII and FIG. 4.
# (§6) Mice were injected with colon 38 cells and were either not treated or treated with daily treatments of 25 and 50 mg/kg FU and 50 and 100 mg/kg FP were given orally to the mice and the change in tumor weight was measured over time.
# BDF1 mice = experiment: Toxicity of FU and FP in BDF1 mice; format: in vivo; conditions: for Death/Total: Day 1,2,3,4,5
# Method: (§7) BDF1 mice were administered daily oral dosages of either 50, 75 or 100 mg/kg of FU or 100, 150 or 200 mg/kg of FP. The survival rates of each are presented in chart and graphic forms in Table VI and FIGS. 2 and 3.
# [8] = Toxicity of FU and FP in BDF1 mice; format: in vivo; conditions: mouse, in vivo, po, daily, Day 1,2,3,4,5
# Method: as §7
# P388-R leukemia cells = experiment: Survival time of mice bearing P388-R leukemia cells; format: in vivo, mouse; conditions: for Cures/Total / ILS (increase in life span over controls): daily on Day 1,2,3,4,5
# Method: as §5
# Inoculum: 10^6 P388R cells into each mouse (i.p.)
# Transgenic mice = experiment: Treatment of transgenic mice expressing SV40 large tumor antigen; format: in vivo, mouse
# Method: Transgenic mice obtained according to the method of Sepulveda et al., Cancer Research 49:6108-6117 (1989) were administered beginning at nine weeks after birth in a female and male, wherein the treatment group received 100 mg/kg two times per day, once per week.
# colon 38 cells = experiment: Colon 38 tumor weight in mice; format: in vivo, mouse; conditions: FU 25 and 50, FP 50 and 100 mg/kg daily oral
# Method: as §6
# [9] = system: metastatic prostate cancer; conditions: cited from earlier work
smiles,measurement,setting,value
O[C@H](CS)[C@H](O)CS (racemic) [Dithiothreitol],inhibition of aldehyde oxidase activity,aldehyde oxidase [1]; literature,could be inhibited
same,IC50,IPdR oxidase,0.1 mM
CCCCS [1-Butane thiol],product inhibition,IPdR oxidase,Approximately 25%
same,IC50,IPdR oxidase,> 50 mM
CC=O [Acetaldehyde],inhibition of aldehyde oxidase activity,aldehyde oxidase [1]; literature,inhibited by acetaldehyde
same,IC50,IPdR oxidase,5 mM
"O=c1ncc(Br)cn1[C@H]1C[C@H](O)[C@@H](CO)O1 [BPdR, 5-bromo-2-pyrimidinone-deoxyribose]",Conversion of RPdR to RUdR,aldehyde oxidase [2],7 ± 2
"O=c1[nH]c(=O)n([C@H]2C[C@H](O)[C@@H](CO)O2)cc1Br [BUdR, 5-bromo-deoxyuridine]",catabolism to the free base,[3],rapid catabolism
same,cytotoxicity limiting effective use as radiosensitizer,[3],limited by their cytotoxicity
N[C@@H](CS)C(=O)O [Cysteine],inhibition of aldehyde oxidase activity,aldehyde oxidase [1]; at 5 mM,no significant inhibition
same,inhibition of aldehyde oxidase activity,aldehyde oxidase [1]; at 50 mM,potent inhibition
same,product inhibition,IPdR oxidase,Approximately 40%
same,IC50,IPdR oxidase,> 50 mM
"C#Cc1cnc(=O)n([C@H]2C[C@H](O)[C@@H](CO)O2)c1 [EPdR, 5-ethynyl-2-pyrimidinone-deoxyribose]",Km,[4]; pH 7.5,77 µM
same,Km,[4]; pH 9.5,46 µM
same,Conversion of RPdR to RUdR,aldehyde oxidase [2],20 ± 4
"CCc1cnc(=O)n([C@H]2C[C@H](O)[C@@H](CO)O2)c1 [EtPdR, 5-ethyl-2-pyrimidinone-deoxyribose]",Products of the reaction,aldehyde oxidase [2],not detected
same,Conversion of RPdR to RUdR,aldehyde oxidase [2],< 0.1
"Oc1ncc(F)cn1 [FP, 5-fluoro-2-pyrimidinone]",metabolism to FU by hepatic aldehyde oxidase in vivo,hepatic aldehyde oxidase [5],metabolizable to FU
same,metabolism to FU by hepatic aldehyde oxidase in vitro,hepatic aldehyde oxidase [6],metabolizable to FU
same,effectiveness of FP compared with FU,[7],essentially the same as FU
same,Death/Total,BDF1 mice; 100 mg/kg p.o.,5/5
same,Death/Total,BDF1 mice; 150 mg/kg p.o.,4/5
same,Death/Total,BDF1 mice; 200 mg/kg p.o.,0/5
same,toxicity of FP compared with FU,"BDF1 mice; oral, even when higher dosages were administered",considerably less
same,LD50,[8],180 mg/kg
same,Cures/Total,P388-R leukemia cells; 50 mg/kg oral,0/5
same,ILS (increase in life span over controls),P388-R leukemia cells; 50 mg/kg oral,0%
same,Cures/Total,P388-R leukemia cells; 100 mg/kg oral,0/5
same,ILS (increase in life span over controls),P388-R leukemia cells; 100 mg/kg oral,30%
same,survival time using FP compared to FU,"P388-R leukemia cells; FU 25 and 50, FP 50 and 100 mg/kg oral",as long using FP compared to FU
same,Conversion of RPdR to RUdR,aldehyde oxidase [2],20
same,"weight gain, male and female",Transgenic mice; after week 13,significantly decreased weight gain
same,"body weight increase, female","Transgenic mice; female, 100 mg/kg two times per day, once per week",slower increase in body weight
same,"survival, female","Transgenic mice; female, versus control, which died at week 16",lived longer; also recorded: survived the control rat
same,"body weight increase, male","Transgenic mice; male, 100 mg/kg two times per day, once per week",slower increase in body weight
same,"survival, male","Transgenic mice; male, inferred from slower body weight increase",longer survival than control
same,"reduction in tumor size or reduction in its growth rate, FU versus FP",colon 38 cells,comparable between FU and FP
"O=c1[nH]cc(F)c(=O)[nH]1 [FU, 5-fluoro uracil, reference compound]",Death/Total,BDF1 mice; 50 mg/kg p.o.,5/5
same,Death/Total,BDF1 mice; 75 mg/kg p.o.,2/5
same,Death/Total,BDF1 mice; 100 mg/kg p.o.,1/5
same,LD50,[8],70 mg/kg
same,Cures/Total,P388-R leukemia cells; 25 mg/kg oral,0/5
same,ILS (increase in life span over controls),P388-R leukemia cells; 25 mg/kg oral,5%
same,Cures/Total,P388-R leukemia cells; 50 mg/kg oral,0/5
same,ILS (increase in life span over controls),P388-R leukemia cells; 50 mg/kg oral,25%
same,"reduction in tumor size or reduction in its growth rate, FU versus FP",colon 38 cells,comparable between FU and FP
OO [Hydrogen peroxide],IC50,IPdR oxidase,10 mM
NO [Hydroxyl amine],IC50,IPdR oxidase,1 mM
"O=c1ncc(I)c[nH]1 [IP, 5-iodo-2-pyrimidinone]",substrate quality for aldehyde oxidase,aldehyde oxidase [2]; in words,excellent substrate
same,Conversion of RPdR to RUdR,aldehyde oxidase [2],18 ± 3
"O=c1[nH]c(=O)n([C@H]2C[C@H](O)[C@@H](CO)O2)cc1I [IUdR, iodo-deoxyuridine]",catabolism to the free base,[3],rapid catabolism
same,cytotoxicity limiting effective use as radiosensitizer,[3],limited by their cytotoxicity
same,systemic toxicity limiting clinical usage,[3]; systemic use,limited its clinical usage
"Cc1cnc(=O)n([C@H]2C[C@H](O)[C@@H](CO)O2)c1 [MPdR, 5-methyl-2-pyrimidinone-deoxyribose]",Products of the reaction,aldehyde oxidase [2],not detected
same,Conversion of RPdR to RUdR,aldehyde oxidase [2],< 0.1
"OCCS [Mercaptoethanol, 2-mercaptoethanol]",inhibition of aldehyde oxidase activity,aldehyde oxidase [1]; literature,could be inhibited
same,IC50,IPdR oxidase,1.8 mM
C[n+]1cccc(C(N)=O)c1 [N^1 -methylnicotinamide],conversion by hepatic aldehyde oxidase,aldehyde oxidase [1]; to N1-methyl-2-pyridone-5-carboxamide and N1-methyl-4-pyridone-3-carboxamide,converts N^1 -methylnicotinamide
same,IC50,IPdR oxidase,1 mM
CCCC(C(=O)OCCN(CC)CC)(c1ccccc1)c1ccccc1 [SKF-525A],IC50,IPdR oxidase,0.03 mM
NC(CO)(CO)CO [Tris buffer],stimulation of aldehyde oxidase activity,aldehyde oxidase [1]; literature,stimulated by potassium ferricyanide and Tris buffer
Cc1ccc(C(=O)Nc2ccc(S(=O)(=O)O)c3cc(S(=O)(=O)O)cc(S(=O)(=O)O)c23)cc1NC(=O)c1cccc(NC(=O)Nc2cccc(C(=O)Nc3cc(C(=O)Nc4ccc(S(=O)(=O)O)c5cc(S(=O)(=O)O)cc(S(=O)(=O)O)c45)ccc3C)c2)c1 [suramin],effectiveness of bolus dosages,[9]; bolus,significantly less effective
same,effective anti-cancer dosage relative to dosage resulting in paralysis,"[9]; human trials, metastatic prostate cancer",very close to the dosage resulting in paralysis

# From US5728684A, “Determination of prodrugs metabolizable by the liver and therapeutic use thereof” (priority 1994, dated 1998)
